Test results taken from patent publication US20230049952A1, “METHODS AND COMPOUNDS FOR RESTORING MUTANT P53 FUNCTION” (PMV Pharmaceuticals, Inc., priority 2020, published 2023).

Tested on: p53 signaling pathway in MT373 tumors
Assay: MT373 syngeneic sarcoma model: mouse p53 signaling pathway profiling panel
Type: in vivo

CCn1c(C#CCNc2ccccc2)cc2cc(CNC3CCN(C)CC3)ccc21 [Compound 1, 1-Anilino-3-{1-ethyl-5-[(1-methyl-4-piperidylamino)methyl]-1H-indol-2-yl}-2-propyne]
Pcna fold increase or percent reduction vs vehicle control (150 mg/kg BIDx1, 24 h): 42.63 fold or %
Pmaip1 fold increase or percent reduction vs vehicle control (150 mg/kg BIDx1, 24 h): 1.45 fold or %
Ppm1d fold increase or percent reduction vs vehicle control (150 mg/kg BIDx1, 24 h): 1.49 fold or %
Prc1 fold increase or percent reduction vs vehicle control (150 mg/kg BIDx1, 24 h): 54.87 fold or %
Prkca fold increase or percent reduction vs vehicle control (150 mg/kg BIDx1, 24 h): 28.12 fold or %
Pten fold increase or percent reduction vs vehicle control (150 mg/kg BIDx1, 24 h): 1.08 fold or %
Pttg1 fold increase or percent reduction vs vehicle control (150 mg/kg BIDx1, 24 h): 1.11 fold or %
Rb1 fold increase or percent reduction vs vehicle control (150 mg/kg BIDx1, 24 h): 1.48 fold or %
Rela fold increase or percent reduction vs vehicle control (150 mg/kg BIDx1, 24 h): 14.73 fold or %
Rprm fold increase or percent reduction vs vehicle control (150 mg/kg BIDx1, 24 h): 2.12 fold or %
Serpinb5 fold increase or percent reduction vs vehicle control (150 mg/kg BIDx1, 24 h): 2.23 fold or %
Sesn2 fold increase or percent reduction vs vehicle control (150 mg/kg BIDx1, 24 h): 2.45 fold or %
Sfn fold increase or percent reduction vs vehicle control (150 mg/kg BIDx1, 24 h): 31.21 fold or %
Sirt1 fold increase or percent reduction vs vehicle control (150 mg/kg BIDx1, 24 h): 15.06 fold or %
Stat1 fold increase or percent reduction vs vehicle control (150 mg/kg BIDx1, 24 h): 1.51 fold or %
Tnf fold increase or percent reduction vs vehicle control (150 mg/kg BIDx1, 24 h): 1.23 fold or %
Traf1 fold increase or percent reduction vs vehicle control (150 mg/kg BIDx1, 24 h): 1.20 fold or %
Trp53bp2 fold increase or percent reduction vs vehicle control (150 mg/kg BIDx1, 24 h): 12.94 fold or %
Trp53 fold increase or percent reduction vs vehicle control (150 mg/kg BIDx1, 24 h): 27.25 fold or %
Apex1 fold increase or percent reduction vs vehicle control (150 mg/kg BIDx1, 48 h): 31.42 fold or %
Atm fold increase or percent reduction vs vehicle control (150 mg/kg BIDx1, 48 h): 26.33 fold or %
Atr fold increase or percent reduction vs vehicle control (150 mg/kg BIDx1, 48 h): 16.47 fold or %
Bag1 fold increase or percent reduction vs vehicle control (150 mg/kg BIDx1, 48 h): 42.01 fold or %
Bax fold increase or percent reduction vs vehicle control (150 mg/kg BIDx1, 48 h): 30.76 fold or %
Bbc3 fold increase or percent reduction vs vehicle control (150 mg/kg BIDx1, 48 h): 1.04 fold or %
Bcl2 fold increase or percent reduction vs vehicle control (150 mg/kg BIDx1, 48 h): 23.30 fold or %
Bid fold increase or percent reduction vs vehicle control (150 mg/kg BIDx1, 48 h): 1.01 fold or %
Birc5 fold increase or percent reduction vs vehicle control (150 mg/kg BIDx1, 48 h): 66.42 fold or %
Brca1 fold increase or percent reduction vs vehicle control (150 mg/kg BIDx1, 48 h): 60.55 fold or %
Brca2 fold increase or percent reduction vs vehicle control (150 mg/kg BIDx1, 48 h): 41.49 fold or %
Btg2 fold increase or percent reduction vs vehicle control (150 mg/kg BIDx1, 48 h): 1.05 fold or %
Casp2 fold increase or percent reduction vs vehicle control (150 mg/kg BIDx1, 48 h): 15.74 fold or %
Ccnb1 fold increase or percent reduction vs vehicle control (150 mg/kg BIDx1, 48 h): 73.80 fold or %
Ccne1 fold increase or percent reduction vs vehicle control (150 mg/kg BIDx1, 48 h): 38.25 fold or %
Ccng1 fold increase or percent reduction vs vehicle control (150 mg/kg BIDx1, 48 h): 1.45 fold or %
Ccnh fold increase or percent reduction vs vehicle control (150 mg/kg BIDx1, 48 h): 16.38 fold or %
Cdc25a fold increase or percent reduction vs vehicle control (150 mg/kg BIDx1, 48 h): 42.22 fold or %
Cdk1 fold increase or percent reduction vs vehicle control (150 mg/kg BIDx1, 48 h): 69.40 fold or %
Cdk4 fold increase or percent reduction vs vehicle control (150 mg/kg BIDx1, 48 h): 54.23 fold or %
Cdkn1a fold increase or percent reduction vs vehicle control (150 mg/kg BIDx1, 48 h): 1.38 fold or %
Cdkn2a fold increase or percent reduction vs vehicle control (150 mg/kg BIDx1, 48 h): 38.18 fold or %
Chek1 fold increase or percent reduction vs vehicle control (150 mg/kg BIDx1, 48 h): 63.16 fold or %
Cradd fold increase or percent reduction vs vehicle control (150 mg/kg BIDx1, 48 h): 24.24 fold or %
Cul9 fold increase or percent reduction vs vehicle control (150 mg/kg BIDx1, 48 h): 1.03 fold or %
Dapk1 fold increase or percent reduction vs vehicle control (150 mg/kg BIDx1, 48 h): 1.17 fold or %
Dnmt1 fold increase or percent reduction vs vehicle control (150 mg/kg BIDx1, 48 h): 34.04 fold or %
E2f1 fold increase or percent reduction vs vehicle control (150 mg/kg BIDx1, 48 h): 30.48 fold or %
E2f3 fold increase or percent reduction vs vehicle control (150 mg/kg BIDx1, 48 h): 33.97 fold or %
Egfr fold increase or percent reduction vs vehicle control (150 mg/kg BIDx1, 48 h): 41.85 fold or %
Egr1 fold increase or percent reduction vs vehicle control (150 mg/kg BIDx1, 48 h): 46.38 fold or %
Ep300 fold increase or percent reduction vs vehicle control (150 mg/kg BIDx1, 48 h): 1.10 fold or %
Ercc1 fold increase or percent reduction vs vehicle control (150 mg/kg BIDx1, 48 h): 44.10 fold or %
Esr1 fold increase or percent reduction vs vehicle control (150 mg/kg BIDx1, 48 h): 1.67 fold or %
Fadd fold increase or percent reduction vs vehicle control (150 mg/kg BIDx1, 48 h): 9.11 fold or %
Fas fold increase or percent reduction vs vehicle control (150 mg/kg BIDx1, 48 h): 10.02 fold or %
Fasl fold increase or percent reduction vs vehicle control (150 mg/kg BIDx1, 48 h): 1.18 fold or %
Foxo3 fold increase or percent reduction vs vehicle control (150 mg/kg BIDx1, 48 h): 7.35 fold or %
Gadd45a fold increase or percent reduction vs vehicle control (150 mg/kg BIDx1, 48 h): 42.12 fold or %
Hif1a fold increase or percent reduction vs vehicle control (150 mg/kg BIDx1, 48 h): 2.87 fold or %
Il6 fold increase or percent reduction vs vehicle control (150 mg/kg BIDx1, 48 h): 79.27 fold or %
Jun fold increase or percent reduction vs vehicle control (150 mg/kg BIDx1, 48 h): 47.43 fold or %
Kras fold increase or percent reduction vs vehicle control (150 mg/kg BIDx1, 48 h): 1.18 fold or %
Lig4 fold increase or percent reduction vs vehicle control (150 mg/kg BIDx1, 48 h): 1.12 fold or %
Mdm2 fold increase or percent reduction vs vehicle control (150 mg/kg BIDx1, 48 h): 1.03 fold or %
Mdm4 fold increase or percent reduction vs vehicle control (150 mg/kg BIDx1, 48 h): 1.28 fold or %
Mel1 fold increase or percent reduction vs vehicle control (150 mg/kg BIDx1, 48 h): 6.76 fold or %
Mlh1 fold increase or percent reduction vs vehicle control (150 mg/kg BIDx1, 48 h): 19.02 fold or %
Msh2 fold increase or percent reduction vs vehicle control (150 mg/kg BIDx1, 48 h): 29.32 fold or %
Myod1 fold increase or percent reduction vs vehicle control (150 mg/kg BIDx1, 48 h): 1.51 fold or %
Nf1 fold increase or percent reduction vs vehicle control (150 mg/kg BIDx1, 48 h): 9.92 fold or %
Nfkb1 fold increase or percent reduction vs vehicle control (150 mg/kg BIDx1, 48 h): 4.37 fold or %
Pcna fold increase or percent reduction vs vehicle control (150 mg/kg BIDx1, 48 h): 58.04 fold or %
Pmaip1 fold increase or percent reduction vs vehicle control (150 mg/kg BIDx1, 48 h): 1.17 fold or %
Ppm1d fold increase or percent reduction vs vehicle control (150 mg/kg BIDx1, 48 h): 2.87 fold or %
Prc1 fold increase or percent reduction vs vehicle control (150 mg/kg BIDx1, 48 h): 59.70 fold or %
Prkca fold increase or percent reduction vs vehicle control (150 mg/kg BIDx1, 48 h): 22.18 fold or %
Pten fold increase or percent reduction vs vehicle control (150 mg/kg BIDx1, 48 h): 1.08 fold or %
Pttg1 fold increase or percent reduction vs vehicle control (150 mg/kg BIDx1, 48 h): 0.69 fold or %
Rb1 fold increase or percent reduction vs vehicle control (150 mg/kg BIDx1, 48 h): 1.43 fold or %
Rela fold increase or percent reduction vs vehicle control (150 mg/kg BIDx1, 48 h): 9.46 fold or %
Rprm fold increase or percent reduction vs vehicle control (150 mg/kg BIDx1, 48 h): 1.00 fold or %
Serpinb5 fold increase or percent reduction vs vehicle control (150 mg/kg BIDx1, 48 h): 3.17 fold or %
Sesn2 fold increase or percent reduction vs vehicle control (150 mg/kg BIDx1, 48 h): 1.21 fold or %
Sfn fold increase or percent reduction vs vehicle control (150 mg/kg BIDx1, 48 h): 13.65 fold or %
